For 25 compounds, IC50 results are on record in patent publication US10611750B2, “Tetrahydroquinoline compositions as bet bromodomain inhibitors” (FORMA Therapeutics, Inc., priority 2013, dated 2020).

“And” between values parts separate entries of the source, which are not always exact repeats. Equal entries are not always repeated. Where two headings read alike, the source gives them in different places. Some results are limits rather than exact numbers.

Test [1] concerns the target T1, BRD4 Bromodomain 1 (BRD4 BD1) (Homo sapiens, UniProt O60885).
T1 construct: 44-168 and BRD4 BD2
Kind of test: AlphaScreen binding assay, BRD4 BD1. Conditions: His-tagged BRD4 BD1 50 nM, biotinylated H4 (1-21) K5/8/12/16 tetra-acetylated peptide 50 nM, compounds listed under IC50 range headings. Summed up:
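Compound dilution series were mixed with His-tagged BRD4 bromodomain and biotinylated tetra-acetylated H4 (1-21) peptide at pH 7.3 (BD1 and peptide at 50 nM, BD2 and peptide at 100 nM). Donor and acceptor beads were then added, and plates were equilibrated at least 1 h before reading. IC50 values were fitted with a four-parameter logistic model.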
On the technique in general: Bead proximity is the source of the signal in Alpha formats.

Test [2] has as its target T2, BRD4 Bromodomain 2 (BRD4 BD2) (Homo sapiens, UniProt O60885).
T2 construct: 333-460 were cloned, expressed, and purified to homogeneity
Briefly: AlphaScreen binding assay, BRD4 BD2. Conditions: His-tagged BRD4 BD2 100 nM, biotinylated H4 (1-21) K5/8/12/16 tetra-acetylated peptide 100 nM, compounds listed under IC50 range headings. As for the experimental part:
The binding of Example compounds to BRD4 Bromodomain 1 and BRD4 Bromodomain 2 was assessed using 384-well AlphaScreen assay technology. His-epitope tagged BRD4 BD144-168 and BRD4 BD2333-460 were cloned, expressed, and purified to homogeneity. BRD4 BD1 and BRD4 BD2 binding and inhibition was assessed by monitoring the engagement of biotinylated Histone H4 (1-21) K5/8/12/16 tetra-acetylated peptide with the targets using the AlphaScreen technology (PerkinElmer). Specifically, in a 384-well black or white flat bottom plate, BRD4 BD1 (50 nM final) or BRD4 BD2 (100 nM final) was combined with peptide (50 nM final for BD1 or 100 nM final for BD2) in 50 mM HEPES (pH 7.3), 100 mM NaCl, 0.1% (w/v) BSA, and 0.01% (w/v) Triton X-100 either in the presence of DMSO (final 1.25% DMSO) or compound dilution series in DMSO. Alpha streptavidin donor beads and Nickel-chelate acceptor beads were added to a final concentration of 10 μg/ml each. After a minimum of 1 hour equilibration, plates were read on a BMG PHERAstar FS multi-label reader (BMG LabTech). The half maximal inhibitory concentration (IC50) values were calculated using IDBS Activity Base software with a four parameter logistic curve fit by the equation y=A+((B−A)/(1+((C/x)^D))), wherein A denotes the bottom plateau of the curve, B denotes the top plateau of the curve, C denotes the x value at the middle of the curve, D denotes the slope factor, x denotes the original known x values, and y denotes the original known y values. Data was fitted using the Levenburg Marquardt algorithm.

Test [3] has as its system acute myelocytic leukemia (AML) cell line MV4-11. Briefly: Oncology cell growth assay (3-day proliferation, CellTiter-Glo). In kind it is cell-based. Particulars: Homo sapiens, MV4-11 cells, 3000 cells/well, compounds listed under IC50 range headings, read-out: MV411 IC50 (gIC50, inhibition of proliferation). The method, boiled down: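 72 h, 37° C, 5% CO2; MV4-11, 3000 cells/well, RPMI 1640 + 10% FBS. Compound final 10, 3.3, 1.1, 0.37, 0.12, 0.041, 0.013, 0.0045 μM. Readout CellTiter-Glo luminescence; gIC50 by 4-parameter logistic fit, normalised to DMSO and no-cell background.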
A general note: In ATP-based viability assays light output follows the ATP content of the culture.

As for `CC(=O)N1c2ccc(-c3ccc(S(C)(=O)=O)cc3)c(Oc3ccccc3)c2CCC1C` (racemic) [I-111, rac-1-(2-methyl-6-(4-(methylsulfonyl)phenyl)-5-phenoxy-3,4-dihydroquinolin-1(2H)-yl)ethanone], the IC50 is 1 to 10 µM in test [1] and less than 0.05 µM in test [2].

For `CC(=O)N1c2cccc(Oc3ccccc3)c2CCC1C` (racemic) [I-112, rac-1-(2-methyl-5-phenoxy-3,4-dihydroquinolin-1(2H)-yl)ethanone], the IC50 in test [1] is not below 10 µM; in test [2] it was 0.05 to 0.5 µM.

In the case of `CC(=O)N1c2ccc(-c3cnn(CCO)c3)c(OCC(=O)N(C)C)c2CC[C@@H]1C` [I-2, (S)-2-(1-acetyl-6-(1-(2-hydroxyethyl)-1H-pyrazol-4-yl)-2-methyl-1,2,3,4-tetrahydroquinolin-5-yloxy)-N,N-dimethylacetamide], the IC50 in test [1] was 1 to 10 µM; in test [2] it was 0.05 to 0.5 µM.

Consider `COc1cccc(Oc2c(-c3cnn(C4CCNCC4)c3)ccc3c2CC[C@H](C)N3C(C)=O)n1` [I-336, (S)-1-(5-(6-methoxypyridin-2-yloxy)-2-methyl-6-(1-(piperidin-4-yl)-1H-pyrazol-4-yl)-3,4-dihydroquinolin-1 (2H)-yl)ethanone], for which the IC50 in test [1] is 0.1 to 1 µM; in test [3] (MV4-11, 72 h) it was less than 0.5 µM.

As for `C[C@H]1CCc2c(ccc(-n3cc(N4CCNCC4)cn3)c2Oc2ccccc2)N1C(=O)C1CC1` [I-337, (S)-cyclopropyl(2-methyl-5-phenoxy-6-(4-(piperazin-1-yl)-1H-pyrazol-1-yl)-3,4-dihydroquinolin-1(2H)-yl)methanone], the IC50 in test [1] is 1 to 10 µM; in test [3] (MV4-11, 72 h), more than 1 µM.

With `C[C@H]1CCc2c(ccc(-n3cc(N4CCOCC4)cn3)c2Oc2ccccc2)N1C(=O)C1CC1` [I-338, (S)-cyclopropyl(2-methyl-6-(4-morpholino-1H-pyrazol-1-yl)-5-phenoxy-3,4-dihydroquinolin-1(2H)-yl)methanone], the IC50 was in the range of 1 to 10 µM in test [1] and 0.5 to 1 µM in test [3] (MV4-11, 72 h).

In the case of `COC(=O)N1c2ccc(-n3cc(N4CCOCC4)cn3)c(Oc3ccccc3)c2CC[C@@H]1C` [I-339, (S)-methyl 2-methyl-6-(4-morpholino-1H-pyrazol-1-yl)-5-phenoxy-3,4-dihydroquinoline-1(2H)-carboxylate], the IC50 is 1 to 10 µM in test [1] and more than 1 µM in test [3] (MV4-11, 72 h).

With `COC(=O)N1c2ccc(-n3cc(N4CCNCC4)cn3)c(Oc3ccccc3)c2CC[C@@H]1C` [I-340, (S)-methyl 2-methyl-5-phenoxy-6-(4-(piperazin-1-yl)-1H-pyrazol-1-yl)-3,4-dihydroquinoline-1(2H)-carboxylate], the IC50 is 1 to 10 µM in test [1] and more than 1 µM in test [3] (MV4-11, 72 h).

As for `COC(=O)N1c2ccc(-c3cnn(C4CCS(=O)(=O)CC4)c3)c(OC3CCC3)c2CC[C@@H]1C` [I-341, methyl (2S)-5-cyclobutoxy-6-[1-(1,1-dioxo-1λ^6-thian-4-yl)-1H-pyrazol-4-yl]-2-methyl-1,2,3,4-tetrahydroquinoline-1-carboxylate], the IC50 in test [1] lay within 0.1 to 1 µM; in test [3] (MV4-11, 72 h), 0.5 to 1 µM.

Consider `C[C@H]1CCc2c(ccc(C#N)c2Oc2ccccc2)N1C(=O)C1CC1` [I-343, (S)-1-(cyclopropanecarbonyl)-2-methyl-5-phenoxy-1,2,3,4-tetrahydroquinoline-6-carbonitrile], for which the IC50 in test [1] was 0.1 to 1 µM and ≥ 10 µM; in test [3] (MV4-11, 72 h), less than 0.5 µM.

`COC(=O)N1c2ccc(C#N)c(Oc3ccccc3)c2CC[C@@H]1C` [I-344, (S)-methyl 6-cyano-2-methyl-5-phenoxy-3,4-dihydroquinoline-1(2H)-carboxylate]: the IC50 in test [1] was not below 10 µM; in test [3] (MV4-11, 72 h) it was more than 1 µM.

On to `C#Cc1ccc2c(c1Oc1ccccc1)CC[C@H](C)N2C(=O)C1CC1` [I-345, (S)-cyclopropyl(6-ethynyl-2-methyl-5-phenoxy-3,4-dihydroquinolin-1(2H)-yl)methanone], for which the IC50 in test [1] was not below 10 µM; in test [3] (MV4-11, 72 h) it was more than 1 µM.

As for `C#Cc1ccc2c(c1Oc1ccccc1)CC[C@H](C)N2C(=O)OC` [I-346, (S)-methyl 6-ethynyl-2-methyl-5-phenoxy-3,4-dihydroquinoline-1(2H)-carboxylate], the IC50 was not below 10 µM in test [1] and more than 1 µM in test [3] (MV4-11, 72 h).

On to `CC#Cc1ccc2c(c1Oc1ccccc1)CC[C@H](C)N2C(=O)C1CC1` [I-347, (S)-cyclopropyl(2-methyl-5-phenoxy-6-(prop-1-ynyl)-3,4-dihydroquinolin-1(2H)-yl)methanone], for which the IC50 in test [1] is not below 10 µM; in test [3] (MV4-11, 72 h), more than 1 µM.

With `C[C@H]1CCc2c(ccc(-n3cc(C4CCNCC4)cn3)c2Oc2ccccc2)N1C(=O)C1CC1` [I-348, (S)-cyclopropyl(2-methyl-5-phenoxy-6-(4-(piperidin-4-yl)-1H-pyrazol-1-yl)-3,4-dihydroquinolin-1(2H)-yl)methanone], the IC50 is 1 to 10 µM in test [1] and less than 0.5 µM in test [3] (MV4-11, 72 h).

As for `COC(=O)N1c2ccc(-c3csc(C4(F)CNC4)n3)c(OC3CCC3)c2CC[C@@H]1C` [I-349, (S)-methyl 5-cyclobutoxy-6-(2-(3-fluoroazetidin-3-yl)thiazol-4-yl)-2-methyl-3,4-dihydroquinoline-1(2H)-carboxylate], the IC50 in test [1] is 1 to 10 µM; in test [3] (MV4-11, 72 h), more than 1 µM.

In the case of `COC(=O)N1c2ccc(-c3csc(C4(OC)CNC4)n3)c(OC3CCC3)c2CC[C@@H]1C` [I-350, (S)-methyl 5-cyclobutoxy-6-(2-(3-methoxyazetidin-3-yl)thiazol-4-yl)-2-methyl-3,4-dihydroquinoline-1(2H)-carboxylate], the IC50 was 1 to 10 µM in test [1] and more than 1 µM in test [3] (MV4-11, 72 h).

Turning to `COC(=O)N1c2ccc(-c3cnn(C4CCNCC4)c3F)c(OC3CCC3)c2CC[C@@H]1C` [I-360, methyl (S)-5-cyclobutoxy-6-(5-fluoro-1-(piperidin-4-yl)-1H-pyrazol-4-yl)-2-methyl-3,4-dihydroquinoline-1(2H)-carboxylate], the IC50 is 0.1 to 1 µM in test [1] and less than 0.5 µM in test [3] (72 hours).

Consider `COC(=O)N1c2ccc(-c3cnn([C@@H]4CCNC[C@H]4F)c3)c(OC3CCC3)c2CC[C@@H]1C` [I-367, methyl (2S)-5-cyclobutoxy-6-{1-[(3R,4R)-3-fluoropiperidin-4-yl]-1H-pyrazol-4-yl}-2-methyl-1,2,3,4-tetrahydroquinoline-1-carboxylate], for which the IC50 is 0.1 to 1 µM in test [1] and less than 0.5 µM in test [3] (MV4-11, 72 h).

Consider `COC(=O)N1c2ccc(-c3cnn([C@@H]4CCNC[C@H]4F)c3)c(Oc3ccc(F)cc3)c2CC[C@@H]1C` [I-368, methyl (2S)-5-(4-fluorophenoxy)-6-{1-[(3R,4R)-3-fluoropiperidin-4-yl]-1H-pyrazol-4-yl}-2-methyl-1,2,3,4-tetrahydroquinoline-1-carboxylate], for which the IC50 in test [1] was 0.1 to 1 µM; in test [3] (MV4-11, 72 h), less than 0.5 µM.

As to `C[C@H]1CCc2c(ccc(-c3cnn([C@@H]4CCNC[C@@H]4F)c3)c2OC2CCC2)N1C(=O)C1CC1` [I-369, (2S)-5-cyclobutoxy-1-cyclopropanecarbonyl-6-{1-[(3S,4R)-3-fluoropiperidin-4-yl]-1H-pyrazol-4-yl}-2-methyl-1,2,3,4-tetrahydroquinoline], the IC50 in test [1] was 0.1 to 1 µM; in test [3] (MV4-11, 72 h), less than 0.5 µM.

For the compound `CC(=O)N1c2ccc(-c3cnn(C4CC4)c3)c(OCC(C)C)c2CC[C@@H]1C` [I-394], the IC50 was 0.1 to 1 µM in test [1] and less than 0.5 µM in test [3] (MV4-11, 72 h).

As for `C[C@H]1CCc2c(ccc(-c3cnn(C4CCOCC4)c3)c2OC2CCC2)N1C(=O)C1CC1` [I-507], the IC50 lay within 0.1 to 1 µM in test [1] and 0.5 to 1 µM in test [3] (MV4-11, 72 h).

Consider `C[C@H]1CCc2c(ccc(-c3cnn(C4CCCS(=O)(=O)C4)c3)c2OC2CCC2)N1C(=O)C1CC1` (some centres unmarked) [I-508], for which the IC50 was 0.1 to 1 µM in test [1] and less than 0.5 µM in test [3] (MV4-11, 72 h).

For `C[C@H]1CCc2c(ccc(-c3cnn(C4CS(=O)(=O)C4)c3)c2OC2CCC2)N1C(=O)C1CC1` [I-509], the IC50 in test [1] was 0.1 to 1 µM; in test [3] (MV4-11, 72 h), less than 0.5 µM.
